Assays:
JAK3 = JAK3 (Homo sapiens (Human), UniProt P52333); test: Jak Biochemical HTRF Assay (JAK3); settings: recombinant GST-tagged catalytic domain, [ATP] 2.9 μM
Method: (§1) Biological Assays Jak Biochemical HTRF Assay Protocol
The ability of compounds to inhibit the activity of JAK1, JAK2, JAK3, and Tyk2 was measured using a recombinant purified GST-tagged catalytic domain for each enzyme (Invitrogen JAK1 #M4290, JAK2 #M4290, JAK3 #M4290, Tyk2 #M4290) in an HTRF format biochemical assay. […] Subsequent reagent additions employed an Agilent Bravo. […] After equilibration, 2 μL of 10×ATP in 1× assay buffer was added to initiate the kinase reaction and the plates were shaken and then incubated at room temperature for 120 minutes. At the end of the incubation, 20 μL of 2× stop buffer (streptavidin-Dylight 650 (Thermo #84547B100 mL), Eu-tagged pY20 antibody (Perkin Elmer #AD0067), EDTA, HEPES, and Triton) was added to quench the reaction. […] After normalization to untreated controls, the percent inhibition of the HTRF signal at each compound concentration was calculated. The plot of percent inhibition versus the log of compound concentration was fit with a 4-parameter dose response equation to calculate IC50 values.

JAK2 = JAK2 (Homo sapiens (Human), UniProt O60674); test: Jak Biochemical HTRF Assay (JAK2); settings: recombinant GST-tagged catalytic domain, [ATP] 8.5 μM
Method: as §1
The ability of compounds to inhibit the activity of JAK1, JAK2, JAK3, and Tyk2 was measured using a recombinant purified GST-tagged catalytic domain for each enzyme (Invitrogen JAK1 #M4290, JAK2 #M4290, JAK3 #M4290, Tyk2 #M4290) in an HTRF format biochemical assay. […] The basic assay protocol is as follows: First, 250 nL of diluted compounds in DMSO were dispensed into the wells of a dry 384-well Black plate (Greiner #781076) using a Labcyte Echo 555 acoustic dispenser. Subsequent reagent additions employed an Agilent Bravo. Next, 18 μL of 1.11× enzyme and 1.11× substrate in 1× assay buffer (Invitrogen kinase buffer # PV3189, 2 mM DTT, 0.05% BSA) were added to the wells and shaken and then preincubated for 30 minutes at room temperature to allow compound binding to equilibrate. After equilibration, 2 μL of 10×ATP in 1× assay buffer was added to initiate the kinase reaction and the plates were shaken and then incubated at room temperature for 120 minutes. At the end of the incubation, 20 μL of 2× stop buffer (streptavidin-Dylight 650 (Thermo #84547B100 mL), Eu-tagged pY20 antibody (Perkin Elmer #AD0067), EDTA, HEPES, and Triton) was added to quench the reaction. Plates were shaken and centrifuged and then incubated 60 minutes at room temperature and then read on a Perkin Elmer Envision (λex=337 nm, λem=665 and 615 nm, TRF delay time=20 μs). HTRF signal=10,000*665 nm reading 615 nm reading. After normalization to untreated controls, the percent inhibition of the HTRF signal at each compound concentration was calculated. The plot of percent inhibition versus the log of compound concentration was fit with a 4-parameter dose response equation to calculate IC50 values.

Sequence of JAK3 (P52333 822-1111): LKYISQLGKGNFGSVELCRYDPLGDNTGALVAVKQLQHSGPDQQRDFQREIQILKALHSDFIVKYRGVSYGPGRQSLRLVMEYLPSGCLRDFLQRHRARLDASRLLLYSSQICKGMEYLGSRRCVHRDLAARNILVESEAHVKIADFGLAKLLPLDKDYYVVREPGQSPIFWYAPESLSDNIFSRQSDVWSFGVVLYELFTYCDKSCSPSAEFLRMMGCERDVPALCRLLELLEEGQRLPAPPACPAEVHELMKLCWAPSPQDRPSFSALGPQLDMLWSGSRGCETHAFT
Sequence of JAK2 (O60674 849-1124): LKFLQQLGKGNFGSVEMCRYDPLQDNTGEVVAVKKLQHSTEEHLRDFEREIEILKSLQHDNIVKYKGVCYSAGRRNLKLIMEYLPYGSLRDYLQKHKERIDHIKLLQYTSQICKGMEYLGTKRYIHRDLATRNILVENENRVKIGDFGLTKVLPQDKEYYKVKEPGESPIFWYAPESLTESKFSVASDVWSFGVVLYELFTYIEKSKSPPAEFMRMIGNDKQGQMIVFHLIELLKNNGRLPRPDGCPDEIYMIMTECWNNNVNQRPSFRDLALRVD

| SMILES | IC50 (JAK3) | IC50 (JAK2) | IC50 (JAK3; given as range class) | IC50 (JAK2; given as range class) |
| --- | --- | --- | --- | --- |
| C=C(C)C(=O)Nc1cccc(-c2ncnc3[nH]cc(C4CCOCC4)c23)c1 [Example 23, N-(3-(5-(Tetrahydro-2H-pyran-4-yl)-7H-pyrrolo[2,3-d]pyrimidin-4-yl)phenyl)methacrylamide] | 8.3 nM | > 1500 nM | – | – |
| CCOC(=O)c1c[nH]c2ncnc(-c3cccc(NC(=O)/C(F)=C/c4ccccc4)c3)c12 [Example 5-26, ethyl 4-(3-{[(2Z)-2-fluoro-3-phenylprop-2-enoyl]amino}phenyl)-7H-pyrrolo[2,3-d]pyrimidine-5-carboxylate] | – | – | 10 to 500 nM | > 500 nM |
| COc1ccccc1-c1c[nH]c2ncnc(-c3cn[nH]c3)c12 [Example 33-6, 5-(2-methoxyphenyl)-4-(1H-pyrazol-4-yl)-7H-pyrrolo[2,3-d]pyrimidine] | – | – | 10 to 500 nM | 10 to 500 nM |
| CC#CC(=O)Nc1cccc(-c2ncnc3[nH]cc(C(=O)OCC)c23)c1 [Example 5-3, ethyl 4-[3-(but-2-ynoylamino)phenyl]-7H-pyrrolo[2,3-d]pyrimidine-5-carboxylate] | 0.072 nM | > 1500 nM | – | – |
| CCOC(=O)c1c[nH]c2ncnc(C3=CCC(C#N)CC3)c12 (stereo not drawn) [Example 1-90, ethyl 4-(4-cyanocyclohex-1-en-1-yl)-7H-pyrrolo[2,3-d]pyrimidine-5-carboxylate] | – | – | 10 to 500 nM | 10 to 500 nM |
| C=C(CN(C)C)C(=O)Nc1cccc(-c2ncnc3[nH]cc(C(=O)OCC)c23)c1 [Example 14, Ethyl-4-[3-({2-[(dimethylamino)methyl]acryloyl}amino)phenyl]-7H-pyrrolo[2,3-d]pyrimidine-5-carboxylate] | 0.066 nM | > 1500 nM | – | – |
| CCOC(=O)c1c[nH]c2ncnc(-c3ccc(Cl)cc3)c12 [Example 1-2, Ethyl 4-(4-chlorophenyl)-7H-pyrrolo[2,3-d]pyrimidine-5-carboxylate] | – | – | 10 to 500 nM | 10 to 500 nM |
| CCOC(=O)c1c[nH]c2ncnc(-c3cccc(N)c3)c12 [Example 1-3, Ethyl 4-(3-aminophenyl)-7H-pyrrolo[2,3-d]pyrimidine-5-carboxylate] | – | – | 10 to 500 nM | > 500 nM |
| CCOC(=O)c1c[nH]c2ncnc(-c3cccc(NC(=O)/C=C/CN(C)C)c3)c12 [Example 16, Ethyl-4-(3-{[(2E)-4-(dimethylamino)but-2-enoyl]amino}phenyl)-7H-pyrrolo[2,3-d]-pyrimidine-5-carboxylate] | 0.2 nM | > 1500 nM | – | – |
| CCOC(=O)c1c[nH]c2ncnc(-c3cccc4c3CNC4=O)c12 [Example 1-73, ethyl 4-(1-oxo-2,3-dihydro-1H-isoindol-4-yl)-7H-pyrrolo[2,3-d]pyrimidine-5-carboxylate] | – | – | 10 to 500 nM | > 500 nM |
| C=C(C)C(=O)Nc1cc(-c2ncnc3[nH]cc(C(=O)OCC)c23)ccc1F [Example 4-16, ethyl 4-{4-fluoro-3-[(2-methylacryloyl)amino]phenyl}-7H-pyrrolo[2,3-d]pyrimidine-5-carboxylate] | 0.07 nM | > 1500 nM | – | – |
| CCOC(=O)c1c[nH]c2ncnc(-c3ccc(F)cc3)c12 [Example 1-34, ethyl 4-(4-fluorophenyl)-7H-pyrrolo[2,3-d]pyrimidine-5-carboxylate] | – | – | 10 to 500 nM | 10 to 500 nM |
| CCOC(=O)c1c[nH]c2ncnc(-c3ccc4ccccc4c3)c12 [Example 1-40, ethyl 4-naphthalen-2-yl-7H-pyrrolo[2,3-d]pyrimidine-5-carboxylate] | 8.8 nM | 186 nM | – | – |
| C=C(C)C(=O)Nc1cc(-c2ncnc3[nH]cc(C(=O)OC)c23)ccc1F [Example 11-1, Methyl 4-{4-fluoro-3-[(2-methylacryloyl)amino]phenyl}-7H-pyrrolo[2,3-d]pyrimidine-5-carboxylate] | 0.4 nM | > 1500 nM | – | – |
| CCOC(=O)c1c[nH]c2ncnc(-c3ccccc3C)c12 [Example 1-38, ethyl 4-(2-methylphenyl)-7H-pyrrolo[2,3-d]pyrimidine-5-carboxylate] | – | – | 10 to 500 nM | > 500 nM |
| COc1ccccc1-c1c[nH]c2ncnc(-c3ccccc3)c12 [Example 33-1, 5-(2-Methoxyphenyl)-4-phenyl-7H-pyrrolo[2,3-d]pyrimidine] | 3.4 nM | 183 nM | – | – |
| c1ccc(COc2cccc(-c3c[nH]c4ncnc(-c5ccccc5)c34)c2)cc1 [Example 32-5, 5-[3-(benzyloxy)phenyl]-4-phenyl-7H-pyrrolo[2,3-d]pyrimidine] | – | – | 10 to 500 nM | > 500 nM |
| C=C(C)C(=O)Nc1cc(C#N)cc(-c2ncnc3[nH]cc(C(=O)OCC)c23)c1 [Example 4-24, ethyl 4-{3-cyano-5-[(2-methylacryloyl)amino]phenyl}-7H-pyrrolo[2,3-d]pyrimidine-5-carboxylate] | 0.068 nM | > 1500 nM | – | – |
| CCOC(=O)c1c[nH]c2ncnc(-c3ccc(O)cc3)c12 [Example 1-35, ethyl 4-(4-hydroxyphenyl)-7H-pyrrolo[2,3-d]pyrimidine-5-carboxylate] | 5.7 nM | 134 nM | – | – |
| CCOC(=O)c1c[nH]c2ncnc(-c3ccc(C)cc3)c12 [Example 1-37, ethyl 4-(4-methylphenyl)-7H-pyrrolo[2,3-d]pyrimidine-5-carboxylate] | – | – | 10 to 500 nM | 10 to 500 nM |
| CCOC(=O)c1c[nH]c2ncnc(-c3cccc(C(=O)OC)c3)c12 [Example 1-8, ethyl 4-[3-(methoxycarbonyl)phenyl]-7H-pyrrolo[2,3-d]pyrimidine-5-carboxylate] | – | – | 10 to 500 nM | > 500 nM |
| CCOC(=O)c1c[nH]c2ncnc(-c3cccc(NC(=O)/C=C/c4c[nH]c5ccccc45)c3)c12 [Example 5-19, ethyl 4-(3-{[(2E)-3-(1H-indo1-3-yl)prop-2-enoyl]amino}phenyl)-7H-pyrrolo[2,3-d]pyrimidine-5-carboxylate] | 2.4 nM | > 1500 nM | – | – |
| CCOC(=O)c1c[nH]c2ncnc(-c3cccc(NCC(F)(F)F)c3)c12 [Example 3-1, Ethyl 4-{3-[(2,2,2-trifluoroethyl)amino]phenyl}-7H-pyrrolo[2,3-d]pyrimidine-5-carboxylate] | – | – | 10 to 500 nM | > 500 nM |
| CCOC(=O)c1c[nH]c2ncnc(-c3ccc(CC#N)nc3)c12 [Example 1-104, ethyl 4-[6-(cyanomethyl)pyridin-3-yl]-7H-pyrrolo[2,3-d]pyrimidine-5-carboxylate] | – | – | 10 to 500 nM | > 500 nM |
| CCOC(=O)c1c[nH]c2ncnc(-c3cccc(C(=O)NCC#N)c3)c12 [Example 8-1] | – | – | 10 to 500 nM | > 500 nM |
| C=C(C)C(=O)Nc1cc(-c2ncnc3[nH]cc(C(=O)OCC)c23)ccc1CO [Example 4-25, ethyl 4-{4-(hydroxymethyl)-3-[(2-methylacryloyl)amino]phenyl}-7H-pyrrolo[2,3-d]pyrimidine-5-carboxylate] | 0.11 nM | > 1500 nM | – | – |
| CCOC(=O)c1c[nH]c2ncnc(-c3cccc(NC(=O)C4(C)CO4)c3)c12 (stereo not drawn) [Example 18-1, Ethyl-4-(3-(2-methyloxirane-2-carboxamido)phenyl)-7H-pyrrolo[2,3-d]pyrimidine-5-carboxylate] | 0.056 nM | > 1500 nM | – | – |
| C=C(C)C(=O)Nc1cccc(-c2ncnc3[nH]cc(-c4ccc(CN)cc4)c23)c1 [Example 19, N-(3-{5-[4-(Aminomethyl)phenyl]-7H-pyrrolo[2,3-d]pyrimidin-4-yl}phenyl)-2-methylprop-2-enamide] | – | – | 10 to 500 nM | > 500 nM |
| C=C(C)C(=O)n1ccc2ccc(-c3ncnc4[nH]cc(C(=O)OCC)c34)cc21 [Example 4-23, ethyl 4-[1-(2-methylacryloyl)-1H-indol-6-yl]-7H-pyrrolo[2,3-d]pyrimidine-5-carboxylate] | 0.34 nM | > 1500 nM | – | – |
| C=C(CNS(C)(=O)=O)C(=O)Nc1cccc(-c2ncnc3[nH]cc(C(=O)OCC)c23)c1 [Example 13-1, Ethyl 4-(3-(2-(methylsulfonamidomethyl)acrylamido)phenyl)-7H-pyrrolo[2,3-d]pyrimidine-5-carboxylate] | 0.052 nM | > 1500 nM | – | – |
